Columns and labels:
rat mGluR5 receptor = molecular target: T1, rat mGluR5 receptor (Rattus norvegicus, UniProt P31424); assay: [3H]-MPEP displacement binding assay, HEK-293 cell membranes expressing rat mGluR5; settings: [3H]-MPEP displacement, rat mGluR5; read-out: Median Ki
T1 construct: expressed in transfected cells; host or cells: HEK-293
How it was run: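 Membranes from HEK-293 cells expressing rat mGluR5 (12-25 μg protein), incubated 60 min at room temperature with 4 nM [3H]-MPEP in 50 mM Tris pH 7.5, then filtered. Nonspecific binding defined with 10 μM MPEP.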

mGluR5 = mGluR5 (Rattus norvegicus, UniProt P31424); assay: IC50 column under 'Biological Activity' (assay not identified in the shown text; not the binding Ki)
Sequence of mGluR5 (P31424 21-1203): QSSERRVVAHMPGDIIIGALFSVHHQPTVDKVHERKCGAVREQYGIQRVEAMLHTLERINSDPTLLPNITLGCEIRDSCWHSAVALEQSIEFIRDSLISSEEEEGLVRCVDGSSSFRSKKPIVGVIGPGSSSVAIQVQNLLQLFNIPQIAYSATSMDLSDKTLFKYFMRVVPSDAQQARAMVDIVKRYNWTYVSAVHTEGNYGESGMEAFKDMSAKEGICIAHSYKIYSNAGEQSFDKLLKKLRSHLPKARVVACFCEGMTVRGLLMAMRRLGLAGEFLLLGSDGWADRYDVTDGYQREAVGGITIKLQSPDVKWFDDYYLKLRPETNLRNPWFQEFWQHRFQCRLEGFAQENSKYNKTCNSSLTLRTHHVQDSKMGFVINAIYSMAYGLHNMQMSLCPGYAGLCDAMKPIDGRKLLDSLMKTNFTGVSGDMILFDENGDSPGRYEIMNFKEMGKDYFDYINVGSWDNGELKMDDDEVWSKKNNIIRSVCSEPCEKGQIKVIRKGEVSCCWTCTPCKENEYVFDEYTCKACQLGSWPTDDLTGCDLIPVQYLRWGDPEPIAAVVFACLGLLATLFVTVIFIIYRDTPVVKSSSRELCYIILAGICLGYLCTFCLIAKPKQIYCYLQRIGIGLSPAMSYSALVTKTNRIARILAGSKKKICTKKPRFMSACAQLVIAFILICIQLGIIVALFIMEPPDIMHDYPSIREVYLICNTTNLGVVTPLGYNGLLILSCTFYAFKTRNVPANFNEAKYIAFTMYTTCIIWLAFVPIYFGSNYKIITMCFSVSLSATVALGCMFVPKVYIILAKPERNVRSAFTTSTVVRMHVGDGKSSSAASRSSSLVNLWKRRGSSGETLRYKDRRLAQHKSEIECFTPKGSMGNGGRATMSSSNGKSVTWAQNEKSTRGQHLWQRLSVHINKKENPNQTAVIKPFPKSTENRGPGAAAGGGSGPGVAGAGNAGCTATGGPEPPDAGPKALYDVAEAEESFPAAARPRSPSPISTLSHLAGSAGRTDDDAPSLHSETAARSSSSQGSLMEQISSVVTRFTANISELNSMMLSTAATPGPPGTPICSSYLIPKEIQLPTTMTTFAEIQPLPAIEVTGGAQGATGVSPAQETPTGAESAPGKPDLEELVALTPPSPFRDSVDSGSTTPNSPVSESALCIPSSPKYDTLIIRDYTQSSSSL

T1 sequence (P31424 21-1203): as above

For `COc1ccc(C(=O)N2CCN(c3ccncc3)CC2)cc1C#Cc1ccccn1` [Compound 236, 1-[4-methoxy-3-(pyridin-2-ylethynyl)benzoyl]-4-pyridin-4-ylpiperazine], the Ki (rat mGluR5 receptor) was 0.078 µM and the IC50 (mGluR5) was over 1 µM.
For `COc1ccc(C(=O)N2CCN(c3ccc(C(C)=O)cc3)CC2)cc1C#Cc1ccccn1` [Compound 237, 1-(4-{4-[4-methoxy-3-(pyridin-2-ylethynyl)benzoyl]piperazin-1-yl}phenyl)ethanone], the Ki (rat mGluR5 receptor) was 0.021 µM and the IC50 (mGluR5) was 0.119 µM.
With `COc1cccc(N2CCN(C(=O)c3ccc(OC)c(C#Cc4ccccn4)c3)CC2)c1` [Compound 241, 1-(3-methoxyphenyl)-4-[4-methoxy-3-(pyridin-2-ylethynyl)benzoyl]piperazine] the Ki (rat mGluR5 receptor) was 0.015 µM and the IC50 (mGluR5) was 0.081 µM.
Compound `COc1ccc(C(=O)N2CCN(S(=O)(=O)c3ccc(Cl)cc3)CC2)cc1C#Cc1ccccn1` [Compound 243, 1-[(4-chlorophenyl)sulfonyl]-4-[4-methoxy-3-(pyridin-2-ylethynyl)benzoyl]piperazine] has a Ki (rat mGluR5 receptor) of 0.014 µM and an IC50 (mGluR5) of 0.154 µM.
`COc1ccc(C(=O)N2CCN(C(=O)c3ccccc3)CC2)cc1C#Cc1ccccn1` [Compound 244, 1-benzoyl-4-[4-methoxy-3-(pyridin-2-ylethynyl)benzoyl]piperazine] gave a Ki (rat mGluR5 receptor) of 0.054 µM and an IC50 (mGluR5) of 0.237 µM.
Compound `CCS(=O)(=O)N1CCN(C(=O)c2ccc(OC)c(C#Cc3ccccn3)c2)CC1` [Compound 245, 1-(ethylsulfonyl)-4-[4-methoxy-3-(pyridin-2-ylethynyl)benzoyl]piperazine] has a Ki (rat mGluR5 receptor) of 0.231 µM and an IC50 (mGluR5) of 0.344 µM.
`COc1ccc(C(=O)N2CCN(c3nccs3)CC2)cc1C#Cc1ccccn1` [Compound 247, 1-[4-methoxy-3-(pyridin-2-ylethynyl)benzoyl]-4-(1,3-thiazol-2-yl)piperazine] was tested, and the Ki (rat mGluR5 receptor) was 0.017 µM and the IC50 (mGluR5) was 0.085 µM.
With `COc1ccc(C(=O)N2CCN(C(=O)C3CC3)CC2)cc1C#Cc1ccccn1` [Compound 248, 1-(cyclopropylcarbonyl)-4-[4-methoxy-3-(pyridin-2-ylethynyl)benzoyl]piperazine] the Ki (rat mGluR5 receptor) was 0.083 µM and the IC50 (mGluR5) was over 1 µM.
`COc1ccc(C(=O)N2CCN(c3ccccc3)CC2C)cc1C#Cc1ccccn1` (centres unmarked) [Compound 250, 1-[4-methoxy-3-(pyridin-2-ylethynyl)benzoyl]-2-methyl-4-phenylpiperazine] showed a Ki (rat mGluR5 receptor) of 0.024 µM and an IC50 (mGluR5) of 0.096 µM.
`COc1ccc(C(=O)N2CCN(c3noc4ccccc34)CC2)cc1C#Cc1ccccn1` [Compound 251, 3-{4-[4-methoxy-3-(pyridin-2-ylethynyl)benzoyl]piperazin-1-yl}-1,2-benzisoxazole] gave a Ki (rat mGluR5 receptor) of 0.006 µM and an IC50 (mGluR5) of 0.025 µM.
`COc1ccc(C(=O)N2CCN(c3ccc(C#N)cn3)CC2)cc1C#Cc1ccccn1` [Compound 252, 6-{4-[4-methoxy-3-(pyridin-2-ylethynyl)benzoyl]piperazin-1-yl}nicotinonitrile] was tested, and the Ki (rat mGluR5 receptor) was 0.033 µM and the IC50 (mGluR5) was 0.192 µM.
Compound `COc1ccc(C(=O)N2CCN(S(=O)(=O)c3ccc(C)cc3)CC2)cc1C#Cc1ccccn1` [Compound 253, 1-[4-methoxy-3-(pyridin-2-ylethynyl)benzoyl]-4-[(4-methylphenyl)sulfonyl]piperazine] has a Ki (rat mGluR5 receptor) of 0.021 µM and an IC50 (mGluR5) of 0.18 µM.
In the case of `COc1ccc(C(=O)N2CCN(c3cccc(Cl)n3)CC2)cc1C#Cc1ccccn1` [Compound 255, 1-(6-chloropyridin-2-yl)-4-[4-methoxy-3-(pyridin-2-ylethynyl)benzoyl]piperazine], the Ki (rat mGluR5 receptor) is reported as 0.009 µM and the IC50 (mGluR5) is reported as 0.129 µM.
In the case of `COc1ccc(C(=O)N2CCN(c3nc4ccccc4o3)CC2)cc1C#Cc1ccccn1` [Compound 257, 2-{4-[4-methoxy-3-(pyridin-2-ylethynyl)benzoyl]piperazin-1-yl}-1,3-benzoxazole], the Ki (rat mGluR5 receptor) is reported as 0.038 µM and the IC50 (mGluR5) is reported as 0.11 µM.
`COc1ccc(C(=O)N2CCN(C(=O)c3ccco3)CC2)cc1C#Cc1ccccn1` [Compound 258, 1-(2-furoyl)-4-[4-methoxy-3-(pyridin-2-ylethynyl)benzoyl]piperazine] was tested, and the Ki (rat mGluR5 receptor) was 0.041 µM and the IC50 (mGluR5) was 0.095 µM.
`COc1ccc(C(=O)N2CCN(Cc3ccc4c(c3)OCO4)CC2)cc1C#Cc1ccccn1` [Compound 259, 1-(1,3-benzodioxol-5-ylmethyl)-4-[4-methoxy-3-(pyridin-2-ylethynyl)benzoyl]piperazine] showed a Ki (rat mGluR5 receptor) of 0.038 µM and an IC50 (mGluR5) of 0.157 µM.
For `COc1ccc(C(=O)N2CCN(c3ncc(Br)cn3)CC2)cc1C#Cc1ccccn1` [Compound 262, 5-bromo-2-{4-[4-methoxy-3-(pyridin-2-ylethynyl)benzoyl]piperazin-1-yl}pyrimidine], the Ki (rat mGluR5 receptor) was 0.017 µM and the IC50 (mGluR5) was 0.148 µM.
For `COc1ccc(C(=O)N2CCN(C(=O)c3ccc(OC)c(C#Cc4ccccn4)c3)CC2)cc1` [Compound 265, 1-(4-methoxybenzoyl)-4-[4-methoxy-3-(pyridin-2-ylethynyl)benzoyl]piperazine], the Ki (rat mGluR5 receptor) was 0.054 µM and the IC50 (mGluR5) was over 1 µM.
Compound `COc1ccc(C(=O)N2CCN(Cc3ccccc3F)CC2)cc1C#Cc1ccccn1` [Compound 266, 1-(2-fluorobenzyl)-4-[4-methoxy-3-(pyridin-2-ylethynyl)benzoyl]piperazine] has a Ki (rat mGluR5 receptor) of 0.033 µM and an IC50 (mGluR5) of over 1 µM.
`COc1ccc(C(=O)N2CCN(Cc3cccc(F)c3)CC2)cc1C#Cc1ccccn1` [Compound 267, 1-(3-fluorobenzyl)-4-[4-methoxy-3-(pyridin-2-ylethynyl)benzoyl]piperazine] was tested, and the Ki (rat mGluR5 receptor) was 0.057 µM and the IC50 (mGluR5) was 0.167 µM.
For `COc1ccc(C(=O)N2CCN(Cc3ccc(F)cc3)CC2)cc1C#Cc1ccccn1` [Compound 268, 1-(4-fluorobenzyl)-4-[4-methoxy-3-(pyridin-2-ylethynyl)benzoyl]piperazine], the Ki (rat mGluR5 receptor) was 0.057 µM and the IC50 (mGluR5) was 0.219 µM.
`COc1ccc(C(=O)N2CCN(Cc3cccc(Cl)c3)CC2)cc1C#Cc1ccccn1` [Compound 274, 1-(3-chlorobenzyl)-4-[4-methoxy-3-(pyridin-2-ylethynyl)benzoyl]piperazine] gave a Ki (rat mGluR5 receptor) of 0.089 µM and an IC50 (mGluR5) of 0.316 µM.
With `COc1ccc(C(=O)N2CCN(Cc3ccc(Cl)cc3)CC2)cc1C#Cc1ccccn1` [Compound 275, 1-(4-chlorobenzyl)-4-[4-methoxy-3-(pyridin-2-ylethynyl)benzoyl]piperazine] the Ki (rat mGluR5 receptor) was 0.017 µM and the IC50 (mGluR5) was 0.144 µM.
With `COc1ccc(C(=O)N2CCN(Cc3ccc(Cl)cc3Cl)CC2)cc1C#Cc1ccccn1` [Compound 280, 1-(2,4-dichlorobenzyl)-4-[4-methoxy-3-(pyridin-2-ylethynyl)benzoyl]piperazine] the Ki (rat mGluR5 receptor) was 0.043 µM and the IC50 (mGluR5) was 0.317 µM.
Compound `COc1ccc(C(=O)N2CCN(Cc3ccc(Br)cc3F)CC2)cc1C#Cc1ccccn1` [Compound 285, 1-(4-bromo-2-fluorobenzyl)-4-[4-methoxy-3-(pyridin-2-ylethynyl)benzoyl]piperazine] has a Ki (rat mGluR5 receptor) of 0.007 µM and an IC50 (mGluR5) of 0.326 µM.
With `COc1ccc(C(=O)N2CCN(S(=O)(=O)c3ccc4ccccc4c3)CC2)cc1C#Cc1ccccn1` [Compound 287, 1-[4-methoxy-3-(pyridin-2-ylethynyl)benzoyl]-4-(2-naphthylsulfonyl)piperazine] the Ki (rat mGluR5 receptor) was 0.07 µM and the IC50 (mGluR5) was over 1000 µM.
Work on `COc1ccc(C(=O)N2CCN(c3ccccc3)CC2)cc1C#Cc1ccccn1` [Compound 292, 1-[4-methoxy-3-(pyridin-2-ylethynyl)benzoyl]-4-phenylpiperazine] yielded a Ki (rat mGluR5 receptor) of 0.014 µM and an IC50 (mGluR5) of 0.208 µM.
Work on `COc1ccc(C(=O)N2CCN(c3ncc(C#N)c(N)n3)CC2)cc1C#Cc1ccccn1` [Compound 293, 4-Amino-2-(4-(4-methoxy-3-(pyridin-2-ylethynyl)benzoyl)piperazin-1-yl)pyrimidine-5-carbonitrile] yielded a Ki (rat mGluR5 receptor) of 0.058 µM and an IC50 (mGluR5) of over 1 µM.
In the case of `COc1ccc(C(=O)N2CCN(c3ccnc(SC)n3)CC2)cc1C#Cc1ccccn1` [Compound 296, 4-{4-[4-methoxy-3-(pyridin-2-ylethynyl)benzoyl]piperazin-1-yl}-2-(methylthio)pyrimidine], the Ki (rat mGluR5 receptor) is reported as 0.022 µM and the IC50 (mGluR5) is reported as over 1 µM.
`COc1ccc(C(=O)N2CCN(c3ncc(F)cn3)CC2)cc1C#Cc1ccccn1` [Compound 298, 5-fluoro-2-{4-[4-methoxy-3-(pyridin-2-ylethynyl)benzoyl]piperazin-1-yl}pyrimidine] was tested, and the Ki (rat mGluR5 receptor) was 0.033 µM and the IC50 (mGluR5) was 0.102 µM.
Compound `COc1cnc(N2CCN(C(=O)c3ccc(OC)c(C#Cc4ccccn4)c3)CC2)nc1` [Compound 299, 5-methoxy-2-{4-[4-methoxy-3-(pyridin-2-ylethynyl)benzoyl]piperazin-1-yl}pyrimidine] has a Ki (rat mGluR5 receptor) of 0.025 µM and an IC50 (mGluR5) of 0.119 µM.
Compound `COc1ccc(C(=O)N2CCN(c3ncc(F)c(N)n3)CC2)cc1C#Cc1ccccn1` [Compound 300, 5-fluoro-2-{4-[4-methoxy-3-(pyridin-2-ylethynyl)benzoyl]piperazin-1-yl}pyrimidin-4-amine] has a Ki (rat mGluR5 receptor) of 0.03 µM and an IC50 (mGluR5) of 0.198 µM.
Compound `COc1ccc(N2CCN(C(=O)c3ccc(OC)c(C#Cc4ccccn4)c3)CC2)nn1` [Compound 301, 3-methoxy-6-{4[4-methoxy-3-(pyridin-2-ylethynyl)benzoyl]piperazin-1-yl}pyridazine] has a Ki (rat mGluR5 receptor) of 0.083 µM and an IC50 (mGluR5) of 0.204 µM.
For `COc1ccc(C(=O)N2CCN(c3nnc(Cl)cc3C)CC2)cc1C#Cc1ccccn1` [Compound 302, 6-chloro-3-{4-[4-methoxy-3-(pyridin-2-ylethynyl)benzoyl]piperazin-1-yl}-4-methylpyridazine], the Ki (rat mGluR5 receptor) was 0.039 µM and the IC50 (mGluR5) was over 1 µM.
Work on `COc1ccc(C(=O)N2CCN(c3ccc(Cl)nn3)CC2)cc1C#Cc1ccccn1` [Compound 303, 3-chloro-6-{4-[4-methoxy-3-(pyridin-2-ylethynyl)benzoyl]piperazin-1-yl}pyridazine] yielded a Ki (rat mGluR5 receptor) of 0.031 µM and an IC50 (mGluR5) of over 1 µM.
`COc1ccc(C(=O)N2CCN(c3nccnc3Cl)CC2)cc1C#Cc1ccccn1` [Compound 304, 2-chloro-3-{4-[4-methoxy-3-(pyridin-2-ylethynyl)benzoyl]piperazin-1-yl}pyrazine] was tested, and the Ki (rat mGluR5 receptor) was 0.052 µM and the IC50 (mGluR5) was 0.408 µM.
`COc1ccc(C(=O)N2CCN(c3nnc(Cl)c4ccccc34)CC2)cc1C#Cc1ccccn1` [Compound 306, 1-chloro-4-{4-[4-methoxy-3-(pyridin-2-ylethynyl)benzoyl]piperazin-1-yl}phthalazine] showed a Ki (rat mGluR5 receptor) of 0.072 µM and an IC50 (mGluR5) of 0.356 µM.

Reference: US20090325964A1, “Piperazine Metabotropic Glutamate Receptor 5 (MGLUR5) Negative Allosteric Modulators For Anxiety/Depression” (Wyeth, priority 2008, published 2009)
